Literature values, collected in patent publication US7585955B2, “Protein separation from a protein mixture” (Florida State University Research Foundation, Inc, priority 2005, dated 2009).

Conditions: for pKa1 / pKa2: polyprotic buffer component

Compound | pKa1 | pKa2 | pKa
CC(N)CN (centres unmarked) [1,2-propanediamine] | about 9.80 | about 6.60 | 
Cc1ccc2ccccc2n1 [2-methylquinoline] |  |  | about 5.80
Nc1ccc(N=Nc2ccccc2)cc1 [4-aminoazobenzene] |  |  | about 2.82
Cc1ccnc2ccccc12 [4-methylquinoline] |  |  | about 5.70
Cc1cccc2ncccc12 [5-methylquinoline] |  |  | about 5.20
Clc1cnc2ncncc2n1 [6-chloropteridine] |  |  | about 3.70
Oc1ccc2ccncc2c1 [7-isoquinolinol] | about 8.90 | about 5.70 | 
c1ccc2nc3ccccc3cc2c1 [acridine] |  |  | about 5.60
c1ccc2cnccc2c1 [isoquinoline] |  |  | about 5.40
Nc1nccs1 [thiazolamine] |  |  | about 5.30
CN(C)C [trimethylamine] |  |  | about 9.80
O=c1[nH]c(=O)c2[nH]c(=O)[nH]c2[nH]1 [uric acid] |  |  | about 3.90
chloroaniline |  |  | about 2.80

Second part, the compound after the results:

pKa1 | pKa2 | pKa | Compound
 |  | about 3.98 | O=C(O)CCCl [3-chloropropanoic acid]
 |  | about 9.90 | CN(C)CC(=O)O [N,N-dimethylglycine]
 |  | about 3.70 | CC(=O)NCC(=O)O [N-acetylglycine]
 |  | about 5.10 | CCNc1ccccc1 [N-ethylaniline]
 |  | about 3.60 | CC(=O)CC(=O)O [acetoacetic acid]
 |  | about 2.80 | O=C(O)c1cncc(C(=O)O)c1 [dinicotinic acid]
 |  | about 2.80 | N=C(N)NCC(=O)O [glycocyamine]
about 5.60 | about 4.70 |  | O=C(O)CCCCCC(=O)O [heptanedioic acid]
about 9.80 | about 6.00 |  | NCCc1c[nH]cn1 [histamine]
 |  | about 3.80 | CC(O)C(=O)O (centres unmarked) [lactic acid]
about 9.70 | about 8.60 |  | NC[C@H](O)c1ccc(O)c(O)c1 [noradrenaline]
